In article PMC12419465, “Photoresponsive molecular tweezers modulate Taspase 1 activity” (RSC Chemical Biology, 2025):
Like-named read-outs stand apart in the source and are kept apart here.

Key:
[1] = biological target: T1, Taspase 1/Importin α interaction (Homo sapiens, UniProt Q9H6P5, D233A/T234A); test: Recombinant pull-down assay, GST-Importin α bait and Taspase 1-His prey; format: biochemical; conditions: percentage of the PPI of Importin α with full-length Taspase 1, ligand conc. 25 µM, n = 3
T1 construct: with full-length Taspase 1 in the recombinant pull-down assay
T1 sequence (Q9H6P5 1-420 D233A/T234A): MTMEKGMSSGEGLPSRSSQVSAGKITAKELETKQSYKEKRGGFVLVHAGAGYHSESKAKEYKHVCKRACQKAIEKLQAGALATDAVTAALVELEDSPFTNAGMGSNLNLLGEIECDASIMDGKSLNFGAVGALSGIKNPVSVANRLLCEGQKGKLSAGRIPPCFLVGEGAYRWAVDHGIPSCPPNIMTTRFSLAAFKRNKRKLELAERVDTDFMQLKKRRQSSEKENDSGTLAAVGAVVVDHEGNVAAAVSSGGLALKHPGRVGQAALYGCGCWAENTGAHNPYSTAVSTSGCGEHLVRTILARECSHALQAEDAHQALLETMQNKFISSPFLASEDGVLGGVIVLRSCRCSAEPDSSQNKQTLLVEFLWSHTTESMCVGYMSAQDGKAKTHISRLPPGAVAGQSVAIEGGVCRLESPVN
Description: Pull-down assay: recombinant pull-down assays were performed as described.[9,10] For details on the assay workflow, see SI (Fig. S6).
Pull-down assays were conducted with 100 μM of TWAAP3 in either its Z or E isomer form or left untreated (un.), omitting the ligand. […] To achieve the respective Z or E isomer, TWAAP3 was irradiated with UV light (365 nm) or green light (520 nm) prior to incubation. All samples contained 3% DMSO during ligand incubation. Negative controls included samples lacking either GST-Importin α (-Iα) or Taspase 1 (-T). *, p < 0.05, t-test. Composed with https://BioRender.com.
Figure S6. Controls for pull-down assays with TWAAP constructs. A. Schematic assay
representation: GST -Importin α was immobilized on a glutathione -coated Sepharose matrix in a spin
column. After GST binding, Taspase 1-His pre-incubated with tweezer constructs was added. […]

[2] = biological target: T2, Cy5-labeled Taspase 1 loop (Homo sapiens, UniProt Q9H6P5); test: Fluorescence titration of Cy5-labeled Taspase 1 loop; format: binding; conditions: for Kd: 1:1 binding model, n = 3, read-out: KD TW (fluorescence titration, loop)
T2 construct: Cy5-labeled NLS-bearing loop peptide (aa S181-D233); purchased GeneCust; host or cells: synthetic peptide
T2 sequence (Q9H6P5 181-233): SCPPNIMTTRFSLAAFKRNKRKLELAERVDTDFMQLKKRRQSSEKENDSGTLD
Description: Fluorescence titration was conducted with a Taspase 1 loop with an N-terminal […] synthesized by GeneCust (Sequence: Cy5-[…]; NLS in bold) as described.[9,10] The fluorescence anisotropy assay was modified based on previously established protocols.[51] Measurements were conducted using an FP-8300 JASCO fluorescence spectrometer (JASCO GmbH). […] Binding curves of the average data were fitted with GraphPad Prism 10.4 (GraphPad) using the quadratic binding equation for one-site specific binding model: [drawing 4] with r = anisotropy, r0 = anisotropy without protein, rmax = maximum anisotropy, F = fluorescent probe (Cy5-labeled peptide) concentration, x = titrant concentration, KD = dissociation constant. All fitting curves have R^2-values between 0.88 and 0.98.
Since Importin binding critically depends on the basic NLS clusters within the Taspase 1 loop, pull-down assays typically provide a reliable readout for tweezer interaction with the relevant lysine and arginine residues. Alternatively, loop binding can be evaluated through ligand titration experiments using a fluorescently labeled Taspase 1 loop (Fig. 5).[10] […] As a result, potential effects related to the orientation of the flexible loop within the context of the globular protein are not captured. Of note, the slight increase in signal at the highest compound concentration likely reflects non-specific effects such as weak autofluorescence, inner filter artifacts, or molecular crowding, highlighting limitations of the assay at this range. Despite these effects, the data points were retained to provide a complete representation of the assay response.
Fig. 5 TWAAP ligands directly address the Taspase 1 loop. Fluorescence titrations were performed using a Cy5-labeled Taspase 1 loop and switchable tweezers. […] Fluorescence intensity in solvent-treated samples was set to 100%, with ligand-treated samples normalized to this value. […] As a control, all ligands were added to Cy5 (without peptide) at their highest concentration, resulting in neglectable changes in fluorescence. Data represent the mean ± SD of three independent experiments. Composed with https://Biorender.com.

## Cc1nn(-c2ccc(-c3cn(CCOP(=O)(O)Oc4c5c(c(OP(=O)(O)O)c6c4C4CC6c6cc7c(cc64)C4CC7c6ccccc64)C4CC5c5cc6c(cc54)C4CC6c5ccccc54)nn3)cc2)c(C)c1N=Nc1ccc(-c2ccc(-c3cn(CCOP(=O)(O)Oc4c5c(c(OP(=O)(O)O)c6c4C4CC6c6cc7c(cc64)C4CC7c6ccccc64)C4CC5c5cc6c(cc54)C4CC6c5ccccc54)nn3)cc2)cc1 [TWAAP3]
[1]; E isomer
  PPI TW (pull-down, full-length protein): 90%
[1]; Z isomer
  PPI TW (pull-down, full-length protein): 60%
[2]; E isomer
  Kd: 400 nM
[2]; Z isomer
  Kd: 600 nM

## Cc1nn(Cc2cn(CCOP(=O)(O)Oc3c4c(c(OP(=O)(O)O)c5c3C3CC5c5cc6c(cc53)C3CC6c5ccccc53)C3CC4c4cc5c(cc43)C3CC5c4ccccc43)nn2)c(C)c1N=Nc1ccc(-c2cn(CCOP(=O)(O)Oc3c4c(c(OP(=O)(O)O)c5c3C3CC5c5cc6c(cc53)C3CC6c5ccccc53)C3CC4c4cc5c(cc43)C3CC5c4ccccc43)nn2)cc1 [TWAAP2]
[2]; E isomer
  Kd: 300 nM
[2]; Z isomer
  Kd: 300 nM

## Cc1nn(-c2ccc(-n3cc(CCOP(=O)(O)Oc4c5c(c(OP(=O)(O)O)c6c4C4CC6c6cc7c(cc64)C4CC7c6ccccc64)C4CC5c5cc6c(cc54)C4CC6c5ccccc54)nn3)cc2)c(C)c1N=Nc1ccc(-n2cc(CCOP(=O)(O)Oc3c4c(c(OP(=O)(O)O)c5c3C3CC5c5cc6c(cc53)C3CC6c5ccccc53)C3CC4c4cc5c(cc43)C3CC5c4ccccc43)nn2)cc1 [TWAAP0]
[2]; E isomer
  Kd: 200 nM
[2]; Z isomer
  Kd: 300 nM

## Cc1nn(-c2ccc(C#Cc3ccc(-c4cn(CCOP(=O)(O)Oc5c6c(c(OP(=O)(O)O)c7c5C5CC7c7cc8c(cc75)C5CC8c7ccccc75)C5CC6c6cc7c(cc65)C5CC7c6ccccc65)nn4)cc3)cc2)c(C)c1N=Nc1ccc(C#Cc2ccc(-c3cn(CCOP(=O)(O)Oc4c5c(c(OP(=O)(O)O)c6c4C4CC6c6cc7c(cc64)C4CC7c6ccccc64)C4CC5c5cc6c(cc54)C4CC6c5ccccc54)nn3)cc2)cc1 [TWAAP4]
[2]; E isomer
  Kd: 800 nM
[2]; Z isomer
  Loop binding, in words: only a weak loop binder
  Kd: 4900 nM
